From patent publication US20080146495A1, “Methods for Treating Hiv by Inhibiting Cd4 Down-Modulation” (The Regents of the University of California, priority 2005, published 2008)

Assays:
Type in all cases: cell-based
[1] = tested on: HIV-1
[2] = tested on: HIV-1 (R9); experiment: Infectivity in MAGIC5 cells of particles released from transduced SupT1, C8166 and MAGIC5B cells; settings: three cell types (SupT1, C8166, MAGIC5B); compared to control GFP vectors
Experimental: Infectivity assays were performed with MAGIC-5 cells using equal amounts of input virus (measured as ng p24 protein) in the presence of 20 μg/ml DEAE dextran. Infection was allowed for 48 hours. Routinely, after 8 hrs of infection, 1 μM AZT was added to block second rounds of virus replication. Infected cells were scored after staining for beta-galactosidase with X-Gal.
Truncated receptor provided to a cell via one of the above-described vectors negatively interferes with HIV-induced down-regulation of endogenous CD4 receptor. […] Though any suitable cell line could be used, the three chosen were: SupT1, C8166, and MAGIC5B. These were selected because they express high levels of viral receptor, as shown in the bottom panel of FIG. 7. Transduction efficiencies with GFP control vectors were higher than 90% in all cell lines, as estimated by flow cytometry. Infection of mock-transduced cells with HIV-1 led to efficient down-modulation of CD4. […] In these cultures, a population of low-CD4/p24-positive infected cells that had undergone receptor down-modulation emerged. […] The infectivity of viral particles released from the cells was determined as with respect to FIG. 5, above.

[3] = tested on: HIV-1 Env (gp160, gp120, gp41)
[4] = tested on: HIV-1 Nef (NA7) fused to GFP; settings: 293T cells transduced with pHR'-CMV vectors, transfected with Nef (NA7)-GFP
[5] = tested on: HIV-1 (R9); experiment: Surface CD4 down-modulation in transduced PBMC infected with HIV-1 (flow cytometry)
[6] = tested on: CXCR4-tropic R9 HIV-1 strain; experiment: Viral replication assay in transduced Jurkat Low-CD4 cells (p24 accumulation)
[7] = tested on: HIV-1 R9
[8] = tested on: HIV-1 (R9); experiment: HIV-induced CD4 down-modulation in transduced CD4-positive cell lines (SupT1, C8166, MAGIC5B)
[9] = virions purified through sucrose cushions

## Cc1cn([C@H]2C[C@H](N=[N+]=[N-])[C@@H](CO)O2)c(=O)[nH]c1=O [AZT, reference compound]
[1]; 1 μM added to target MAGIC5 cells
  extent of inhibition of infectivity relative to that by CD4Δcyt expression: comparable

## CD4Δcyt
[2]
  infectivity of viral particles released from transduced cells: largely diminished infectivity
[3]; total cell lysates of 293T producer cells
  gp160 envelope precursor in producer cell lysates (anti-gp120 western blot): accumulation of a 160 kDa protein band
[3]; transduced 293T cells
  steady-state levels of gp41 in producer cells: reduction in the steady-state levels of gp41
[3]; [9]
  gp41 incorporation in membranes from virions: Reductions in gp41 incorporation
  gp120 incorporation into / exclusion from virions: more severe
[4]
  effect of Nef-GFP expression on surface expression of the CD4 variant: did not alter the expression
[5]; PBMC infected with HIV-1
  reduction in CD4 down-modulation compared to cells transduced with full-length receptor: more than 10 fold
[5]; PBMC transduced to similar levels with pWPI vector
  numbers of low-CD4/GFP-positive cells after HIV-1 infection: reduced numbers of low-CD4/GFP-positive cells
[1]
  extent of inhibition in single-round infectivity assays: greater than 99%
  reduced infectivity of viral progeny: 100 fold
  reduction of infectivity of HIV-1: more than 1000 fold
[6]; Jurkat Low-CD4 cells, HIV-1 R9
  HIV-1 replication (p24 accumulation in cultures): complete abrogation of HIV-1 replication
[6]; after more than 60 days, two independent experiments, Jurkat Low-CD4 cells exposed to HIV-1
  revertant viruses: not detected
[7]
  amount on the surface of infected cells, mean values: 2857
  down-modulation of surface receptor by HIV-1 (VSV): completely resistant to down-modulation
  surface levels in HIV-1 infected cells, higher than in infected cells transduced with wild-type CD4: 11 fold
[8]; SupT1, C8166, MAGIC5B cells
  surface CD4 levels in infected cells, higher than in mock-infected cells: 3- to 4 fold
[8]; SupT1, C8166, MAGIC5B cells, 48 h after infection
  receptor down-modulation after HIV-1 infection of transduced CD4-positive cells: failed to down-modulate the receptor
[8]; cultures of SupT1 and C8166 cells
  p24-positive cells with low levels of CD4 receptor: no longer observed
